{"source": "patent US20210127673A1", "about": "“HERBICIDES” (SYNGENTA PARTICIPATIONS AG, priority 2016, published 2021)", "assay_type_in_all_cases": "in vivo", "conditions_in_all_cases": "1000 g/ha, evaluated after 13 days", "key": {"Lolium perenne (LOLPE) [1]": {"tested_on": "Lolium perenne (LOLPE)", "assay": "Pre-emergence herbicidal activity, Lolium perenne", "set-up": "key: 5=total damage to plant; 0=no damage to plant", "method_in_brief": "(§1)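 Pots of seeds were sprayed one day after sowing (pre-emergence) with compound in acetone/water (50:50) plus 0.5% Tween 20, then grown in a glasshouse at 24/16 °C day/night, 14 h light, 65% humidity. Damage scored 0–5 (5 = total damage) after 13 days.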"}, "[2]": {"tested_on": "Triticum aestivium (TRZAW)", "assay": "Pre-emergence herbicidal activity, Triticum aestivium", "set-up": "key: 5=total damage to plant; 0=no damage to plant", "method_in_brief": "as §1"}, "Setaria faberi (SETFA) [3]": {"tested_on": "Setaria faberi (SETFA)", "assay": "Pre-emergence herbicidal activity, Setaria faberi", "set-up": "key: 5=total damage to plant; 0=no damage to plant", "method_in_brief": "as §1"}, "[4]": {"tested_on": "Alopecurus myosuroides (ALOMY)", "assay": "Pre-emergence herbicidal activity, Alopecurus myosuroides", "set-up": "key: 5=total damage to plant; 0=no damage to plant", "method_in_brief": "as §1"}, "Lolium perenne (LOLPE) [5]": {"tested_on": "Lolium perenne (LOLPE)", "assay": "Post-emergence herbicidal activity, Lolium perenne", "set-up": "key: 5=total damage to plant; 0=no damage to plant", "method_in_brief": "(§2)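 Scores (0 no damage to 5 total damage) read 13 d after spraying. Plants sprayed post-emergence 8 d after sowing; spray solution acetone/water 50:50 with 0.5% Tween 20. Growth at 24/16 °C day/night, 14 h light, 65% RH, twice-daily watering.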"}, "[6]": {"tested_on": "Alopecurus myosuroides (ALOMY)", "assay": "Post-emergence herbicidal activity, Alopecurus myosuroides", "set-up": "key: 5=total damage to plant; 0=no damage to plant", "method_in_brief": "as §2"}, "Avena fatua (AVEFA) [7]": {"tested_on": "Avena fatua (AVEFA)", "assay": "Pre-emergence herbicidal activity, Avena fatua", "set-up": "key: 5=total damage to plant; 0=no damage to plant", "method_in_brief": "as §1"}, "[8]": {"tested_on": "Triticum aestivium (TRZAW)", "assay": "Post-emergence herbicidal activity, Triticum aestivium", "set-up": "key: 5=total damage to plant; 0=no damage to plant", "method_in_brief": "as §2"}, "Avena fatua (AVEFA) [9]": {"tested_on": "Avena fatua (AVEFA)", "assay": "Post-emergence herbicidal activity, Avena fatua", "method_in_brief": "as §2"}, "[10]": {"tested_on": "Echinochloa crus-galli (ECHCG)", "assay": "Pre-emergence herbicidal activity, Echinochloa crus-galli", "set-up": "key: 5=total damage to plant; 0=no damage to plant", "method_in_brief": "as §1"}, "[11]": {"tested_on": "Echinochloa crus-galli (ECHCG)", "assay": "Post-emergence herbicidal activity, Echinochloa crus-galli", "set-up": "key: 5=total damage to plant; 0=no damage to plant", "method_in_brief": "as §2"}, "Setaria faberi (SETFA) [12]": {"tested_on": "Setaria faberi (SETFA)", "assay": "Post-emergence herbicidal activity, Setaria faberi", "set-up": "key: 5=total damage to plant; 0=no damage to plant", "method_in_brief": "as §2"}}, "data": [{"smiles": "CC(C)(C)OC(=O)Nc1ccc(-c2cncc(C(F)F)c2)nc1C(F)(F)F", "note": "[Compound B5]", "values": [{"measurement": "Control of LOLPE after pre-emergence application (score 0-5)", "setting": "Lolium perenne (LOLPE) [1]", "value": 0}, {"measurement": "Control of TRAZW after pre-emergence application (score 0-5)", "setting": "[2]", "value": 0}, {"measurement": "Control of SETFA after pre-emergence application (score 0-5)", "setting": "Setaria faberi (SETFA) [3]", "value": 4}, {"measurement": "Control of ALOMY after pre-emergence application (score 0-5)", "setting": "[4]", "value": 0}, {"measurement": "Control of LOLPE after post-emergence application (score 0-5)", "setting": "Lolium perenne (LOLPE) [5]", "value": 1}, {"measurement": "Control of ALOMY after post-emergence application (score 0-5)", "setting": "[6]", "value": 1}, {"measurement": "Control of AVEFA after pre-emergence application (score 0-5)", "setting": "Avena fatua (AVEFA) [7]", "value": 0}, {"measurement": "Control of TRAZW after post-emergence application (score 0-5)", "setting": "[8]", "value": 0}, {"measurement": "Control of AVEFA after post-emergence application (score 0-5)", "setting": "Avena fatua (AVEFA) [9]", "value": 1}, {"measurement": "Control of ECHCG after pre-emergence application (score 0-5)", "setting": "[10]", "value": 2}, {"measurement": "Control of ECHCG after post-emergence application (score 0-5)", "setting": "[11]", "value": 3}, {"measurement": "Control of SETFA after post-emergence application (score 0-5)", "setting": "Setaria faberi (SETFA) [12]", "value": 4}]}, {"smiles": "CN1CCN(c2ccc(-c3cncc(F)c3)nc2C(F)(F)F)C1=O", "note": "[Compound B46]", "values": [{"measurement": "Control of LOLPE after pre-emergence application (score 0-5)", "setting": "Lolium perenne (LOLPE) [1]", "value": 0}, {"measurement": "Control of TRAZW after pre-emergence application (score 0-5)", "setting": "[2]", "value": 0}, {"measurement": "Control of SETFA after pre-emergence application (score 0-5)", "setting": "Setaria faberi (SETFA) [3]", "value": 4}, {"measurement": "Control of ALOMY after pre-emergence application (score 0-5)", "setting": "[4]", "value": 0}, {"measurement": "Control of LOLPE after post-emergence application (score 0-5)", "setting": "Lolium perenne (LOLPE) [5]", "value": 2}, {"measurement": "Control of ALOMY after post-emergence application (score 0-5)", "setting": "[6]", "value": 0}, {"measurement": "Control of AVEFA after pre-emergence application (score 0-5)", "setting": "Avena fatua (AVEFA) [7]", "value": 1}, {"measurement": "Control of TRAZW after post-emergence application (score 0-5)", "setting": "[8]", "value": 0}, {"measurement": "Control of AVEFA after post-emergence application (score 0-5)", "setting": "Avena fatua (AVEFA) [9]", "value": 3}, {"measurement": "Control of ECHCG after pre-emergence application (score 0-5)", "setting": "[10]", "value": 2}, {"measurement": "Control of ECHCG after post-emergence application (score 0-5)", "setting": "[11]", "value": 4}, {"measurement": "Control of SETFA after post-emergence application (score 0-5)", "setting": "Setaria faberi (SETFA) [12]", "value": 4}]}, {"smiles": "COCCOC(=O)Nc1ccc(-c2cncc(F)c2)nc1C(F)(F)F", "note": "[Compound B59]", "values": [{"measurement": "Control of LOLPE after pre-emergence application (score 0-5)", "setting": "Lolium perenne (LOLPE) [1]", "value": 2}, {"measurement": "Control of TRAZW after pre-emergence application (score 0-5)", "setting": "[2]", "value": 0}, {"measurement": "Control of SETFA after pre-emergence application (score 0-5)", "setting": "Setaria faberi (SETFA) [3]", "value": 3}, {"measurement": "Control of ALOMY after pre-emergence application (score 0-5)", "setting": "[4]", "value": 1}, {"measurement": "Control of LOLPE after post-emergence application (score 0-5)", "setting": "Lolium perenne (LOLPE) [5]", "value": 3}, {"measurement": "Control of ALOMY after post-emergence application (score 0-5)", "setting": "[6]", "value": 1}, {"measurement": "Control of AVEFA after pre-emergence application (score 0-5)", "setting": "Avena fatua (AVEFA) [7]", "value": 2}, {"measurement": "Control of TRAZW after post-emergence application (score 0-5)", "setting": "[8]", "value": 1}, {"measurement": "Control of AVEFA after post-emergence application (score 0-5)", "setting": "Avena fatua (AVEFA) [9]", "value": 3}, {"measurement": "Control of ECHCG after pre-emergence application (score 0-5)", "setting": "[10]", "value": 4}, {"measurement": "Control of ECHCG after post-emergence application (score 0-5)", "setting": "[11]", "value": 5}, {"measurement": "Control of SETFA after post-emergence application (score 0-5)", "setting": "Setaria faberi (SETFA) [12]", "value": 4}]}, {"smiles": "O=C(Nc1ccc(-c2cncc(F)c2)nc1C(F)(F)F)N1CCOCC1", "note": "[Compound B39]", "values": [{"measurement": "Control of LOLPE after pre-emergence application (score 0-5)", "setting": "Lolium perenne (LOLPE) [1]", "value": 1}, {"measurement": "Control of TRAZW after pre-emergence application (score 0-5)", "setting": "[2]", "value": 0}, {"measurement": "Control of SETFA after pre-emergence application (score 0-5)", "setting": "Setaria faberi (SETFA) [3]", "value": 5}, {"measurement": "Control of ALOMY after pre-emergence application (score 0-5)", "setting": "[4]", "value": 0}, {"measurement": "Control of LOLPE after post-emergence application (score 0-5)", "setting": "Lolium perenne (LOLPE) [5]", "value": 3}, {"measurement": "Control of ALOMY after post-emergence application (score 0-5)", "setting": "[6]", "value": 1}, {"measurement": "Control of AVEFA after pre-emergence application (score 0-5)", "setting": "Avena fatua (AVEFA) [7]", "value": 3}, {"measurement": "Control of TRAZW after post-emergence application (score 0-5)", "setting": "[8]", "value": 1}, {"measurement": "Control of AVEFA after post-emergence application (score 0-5)", "setting": "Avena fatua (AVEFA) [9]", "value": 4}, {"measurement": "Control of ECHCG after pre-emergence application (score 0-5)", "setting": "[10]", "value": 4}, {"measurement": "Control of ECHCG after post-emergence application (score 0-5)", "setting": "[11]", "value": 5}, {"measurement": "Control of SETFA after post-emergence application (score 0-5)", "setting": "Setaria faberi (SETFA) [12]", "value": 5}]}, {"smiles": "CC(C)(C)OC(=O)N(Cc1ccc(F)cc1F)c1ccc(-c2cncc(F)c2)nc1C(F)(F)F", "note": "[Compound B3]", "values": [{"measurement": "Control of LOLPE after pre-emergence application (score 0-5)", "setting": "Lolium perenne (LOLPE) [1]", "value": 0}, {"measurement": "Control of TRAZW after pre-emergence application (score 0-5)", "setting": "[2]", "value": 0}, {"measurement": "Control of SETFA after pre-emergence application (score 0-5)", "setting": "Setaria faberi (SETFA) [3]", "value": 0}, {"measurement": "Control of ALOMY after pre-emergence application (score 0-5)", "setting": "[4]", "value": 0}, {"measurement": "Control of LOLPE after post-emergence application (score 0-5)", "setting": "Lolium perenne (LOLPE) [5]", "value": 0}, {"measurement": "Control of ALOMY after post-emergence application (score 0-5)", "setting": "[6]", "value": 0}, {"measurement": "Control of AVEFA after pre-emergence application (score 0-5)", "setting": "Avena fatua (AVEFA) [7]", "value": 0}, {"measurement": "Control of TRAZW after post-emergence application (score 0-5)", "setting": "[8]", "value": 0}, {"measurement": "Control of AVEFA after post-emergence application (score 0-5)", "setting": "Avena fatua (AVEFA) [9]", "value": 2}, {"measurement": "Control of ECHCG after pre-emergence application (score 0-5)", "setting": "[10]", "value": 0}, {"measurement": "Control of ECHCG after post-emergence application (score 0-5)", "setting": "[11]", "value": 2}, {"measurement": "Control of SETFA after post-emergence application (score 0-5)", "setting": "Setaria faberi (SETFA) [12]", "value": 3}]}, {"smiles": "COc1nc(-c2cncc(F)c2)ccc1N(C(=O)OC(C)(C)C)C(=O)OC(C)(C)C", "note": "[Compound B109]", "values": [{"measurement": "Control of LOLPE after pre-emergence application (score 0-5)", "setting": "Lolium perenne (LOLPE) [1]", "value": 0}, {"measurement": "Control of TRAZW after pre-emergence application (score 0-5)", "setting": "[2]", "value": 0}, {"measurement": "Control of SETFA after pre-emergence application (score 0-5)", "setting": "Setaria faberi (SETFA) [3]", "value": 3}, {"measurement": "Control of ALOMY after pre-emergence application (score 0-5)", "setting": "[4]", "value": 0}, {"measurement": "Control of LOLPE after post-emergence application (score 0-5)", "setting": "Lolium perenne (LOLPE) [5]", "value": 0}, {"measurement": "Control of ALOMY after post-emergence application (score 0-5)", "setting": "[6]", "value": 0}, {"measurement": "Control of AVEFA after pre-emergence application (score 0-5)", "setting": "Avena fatua (AVEFA) [7]", "value": 1}, {"measurement": "Control of TRAZW after post-emergence application (score 0-5)", "setting": "[8]", "value": 0}, {"measurement": "Control of AVEFA after post-emergence application (score 0-5)", "setting": "Avena fatua (AVEFA) [9]", "value": 1}, {"measurement": "Control of ECHCG after pre-emergence application (score 0-5)", "setting": "[10]", "value": 0}, {"measurement": "Control of ECHCG after post-emergence application (score 0-5)", "setting": "[11]", "value": 1}, {"measurement": "Control of SETFA after post-emergence application (score 0-5)", "setting": "Setaria faberi (SETFA) [12]", "value": 1}]}]}
